pIC50: −log10 of the molar value.
Target: T1, human plasma protein factor Xa (Homo sapiens, UniProt P00742)
T1 construct: The human plasma protein factor Xa was purchased; purchased Haematologic Technologies (Essex Junction, Vt.); host or cells: human plasma
Assay: Factor Xa IC50 determination (cleavage of paranitroanilide substrate S-2765)
Type: biochemical
Settings: factor Xa 1 nM, S-2765 100 μM, Tris buffered saline pH 7.4, read at 405 nm
Method in brief: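 Human plasma factor Xa (1 nM) preincubated 5 min at room temperature with inhibitor (0.01 nM–10 μM) in Tris-buffered saline pH 7.4 with 5 mM CaCl2, 0.1% BSA, 5% DMSO. S-2765 added at 100 μM final; pNA release followed at 405 nm for 2 min. IC50 from four-parameter fit of initial velocities.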

T1 sequence (P00742 235-488 limits assumed): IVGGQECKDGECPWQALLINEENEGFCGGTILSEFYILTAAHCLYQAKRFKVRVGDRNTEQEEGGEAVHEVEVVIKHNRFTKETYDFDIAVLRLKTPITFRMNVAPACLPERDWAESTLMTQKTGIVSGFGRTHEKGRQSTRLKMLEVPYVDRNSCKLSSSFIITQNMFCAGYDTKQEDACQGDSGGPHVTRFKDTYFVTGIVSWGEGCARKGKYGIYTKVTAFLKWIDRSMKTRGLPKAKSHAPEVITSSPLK
T1 sequence (P00742 41-179 partner limits assumed): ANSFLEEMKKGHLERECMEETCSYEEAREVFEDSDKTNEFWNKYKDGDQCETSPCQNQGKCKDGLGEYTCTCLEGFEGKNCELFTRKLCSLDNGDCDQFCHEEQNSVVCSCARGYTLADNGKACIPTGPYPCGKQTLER

SMILES	pIC50
NCC[S+]([O-])c1cc(-n2ccccc2=O)ccc1-n1cc(CNC(=O)c2ccc(Cl)s2)nn1 (stereo not drawn) [Compound 54, N-((1-(2-(2-Aminoethylsulfoxy)-4-(2-oxopyridin-1(2H)-yl)phenyl)-1H-1,2,3-triazol-4-yl)methyl)-5-chlorothiophene-2-carboxamide]	≥ 7.00
NC(=O)c1cc(-n2ccccc2=O)ccc1-n1cc(CNC(=O)c2ccc(Cl)s2)nn1 [Compound 101, N-((1-(2-Carbamoyl-4-(2-oxopyridin-1(2H)-yl)phenyl)-1H-1,2,3-triazol-4-yl)methyl)-5-chlorothiophene-2-carboxamide]	≥ 7.00
O=C(NCc1cn(-c2ccc(-n3ccccc3=O)cc2Oc2ccncc2)nn1)c1ccc(Cl)s1 [Compound 63, 5-Chloro-N-((1-(4-(2-oxopyridin-1(2H)-yl)-2-(pyridin-4-yloxy)phenyl)-1H-1,2,3-triazol-4-yl)methyl)thiophene-2-carboxamide]	≥ 7.00
O=C(NCc1cn(-c2ccc(-n3ccccc3=O)cc2OCc2ncc[nH]2)nn1)c1ccc(Cl)s1 [Compound 177, N-((1-(2-((1H-Imidazol-2-yl)methoxy)-4-(2-oxopyridin-1(2H)-yl)phenyl)-1H-1,2,3-triazol-4-yl)methyl)-5-chlorothiophene-2-carboxamide]	≥ 7.00
O=C(NCc1cn(-c2ccc(-n3ccccc3=O)cc2N2CCC(O)CC2)nn1)c1ccc(Cl)s1 [Compound 21, 5-Chloro-N-((1-(2-(4-hydroxypiperidin-1-yl)-4-(2-oxopyridin-1(2H)-yl)phenyl)-1H-1,2,3-triazol-4-yl)methyl)thiophene-2-carboxamide]	≥ 7.00
CNCCN(C)C(=O)c1cc(-n2ccccc2=O)ccc1-n1cc(CNC(=O)c2ccc(Cl)s2)nn1 [Compound 110, 5-Chloro-N-((1-(2-(methyl(2-(methylamino)ethyl)carbamoyl)-4-(2-oxopyridin-1(2H)-yl)phenyl)-1H-1,2,3-triazol-4-yl)methyl)thiophene-2-carboxamide]	6.30 to 7.00
O=C(NCc1cn(-c2ccc(-n3ccccc3=O)cc2OCCCN2CCCCC2)nn1)c1ccc(Cl)s1 [Compound 94, 5-Chloro-N-((1-(4-(2-oxopyridin-1(2H)-yl)-2-(3-(piperidin-1-yl)propoxy)phenyl)-1H-1,2,3-triazol-4-yl)methyl)thiophene-2-carboxamide]	≥ 7.00
O=C(NCc1cn(-c2ccc(-n3ccccc3=O)cc2C(=O)NCCCO)nn1)c1ccc(Cl)s1 [Compound 105, N-((1-(2-((3-Hydroxypropyl)carbamoyl)-4-(2-oxopyridin-1(2H)-yl)phenyl)-1H-1,2,3-triazol-4-yl)methyl)-5-chlorothiophene-2-carboxamide]	6.30 to 7.00
O=C(NCc1cn(-c2ccc(-n3ccccc3=O)cc2OC[C@@H](O)CO)nn1)c1ccc(Cl)s1 [Compound 79, 5-Chloro-N-((1-(2-((S)-2,3-dihydroxypropoxy)-4-(2-oxopyridin-1(2H)-yl)phenyl)-1H-1,2,3-triazol-4-yl)methyl)thiophene-2-carboxamide]	≥ 7.00
O=C(NCc1cn(-c2ccc(-n3ccccc3=O)cc2-c2ccc(O)nc2)nn1)c1ccc(Cl)s1 [Compound 142, 5-Chloro-N-((1-(2-(6-hydroxypyridin-3-yl)-4-(2-oxopyridin-1(2H)-yl)phenyl)-1H-1,2,3-triazol-4-yl)methyl)thiophene-2-carboxamide]	≥ 7.00
O=C(NCc1cn(-c2ccc(-n3ccccc3=O)cc2OC(F)(F)F)nn1)c1ccc(Cl)s1 [Compound 99, 5-Chloro-N-((1-(4-(2-oxopyridin-1(2H)-yl)-2-(trifluoromethoxy)phenyl)-1H-1,2,3-triazol-4-yl)methyl)thiophene-2-carboxamide]	≥ 7.00
O=C(NCc1cn(-c2ccc(-n3ccccc3=O)cc2-c2cccnc2)nn1)c1ccc(Cl)s1 [Compound 126, 5-Chloro-N-((1-(4-(2-oxopyridin-1(2H)-yl)-2-(pyridin-3-yl)phenyl)-1H-1,2,3-triazol-4-yl)methyl)thiophene-2-carboxamide]	≥ 7.00

Other lines, results leading:

pIC50	SMILES
≥ 7.00	O=C(NCc1cn(-c2ccc(-n3ccccc3=O)cc2OCCc2ccncc2)nn1)c1ccc(Cl)s1 [Compound 91, 5-Chloro-N-((1-(4-(2-oxopyridin-1(2H)-yl)-2-(2-(pyridin-4-yl)ethoxy)phenyl)-1H-1,2,3-triazol-4-yl)methyl)thiophene-2-carboxamide]
≥ 7.00	O=C(NCc1cn(-c2ccc(-n3ccccc3=O)cc2-c2ccnc(O)c2)nn1)c1ccc(Cl)s1 [Compound 137, 5-Chloro-N-((1-(2-(2-hydroxypyridin-4-yl)-4-(2-oxopyridin-1(2H)-yl)phenyl)-1H-1,2,3-triazol-4-yl)methyl)thiophene-2-carboxamide]
≥ 7.00	O=C1CN(c2cc(N3CCCCC3=O)ccc2-n2cc(CNC(=O)c3ccc(Cl)s3)nn2)CCN1 [Compound 159, 5-Chloro-N-((1-(2-(3-oxopiperazin-1-yl)-4-(2-oxopiperidin-1-yl)phenyl)-1H-1,2,3-triazol-4-yl)methyl)thiophene-2-carboxamide]
≥ 7.00	O=C(NCc1cn(-c2ccc(-n3ccccc3=O)cc2CO)nn1)c1ccc(Cl)s1 [Compound 119, 5-Chloro-N-((1-(2-(hydroxymethyl)-4-(2-oxopyridin-1(2H)-yl)phenyl)-1H-1,2,3-triazol-4-yl)methyl)thiophene-2-carboxamide]
≥ 7.00	O=C(NCc1cn(-c2ccc(-n3ccccc3=O)cc2OCCn2ccnc2)nn1)c1ccc(Cl)s1 [Compound 148, N-((1-(2-(2-(1H-Imidazol-1-yl)ethoxy)-4-(2-oxopyridin-1(2H)-yl)phenyl)-1H-1,2,3-triazol-4-yl)methyl)-5-chlorothiophene-2-carboxamide]
6.30 to 7.00	O=C(NCc1cn(-c2ccc(-n3ccccc3=O)cc2C(=O)Nc2ccncc2)nn1)c1ccc(Cl)s1 [Compound 118, 5-Chloro-N-((1-(4-(2-oxopyridin-1(2H)-yl)-2-(pyridin-4-ylcarbamoyl)phenyl)-1H-1,2,3-triazol-4-yl)methyl)thiophene-2-carboxamide]
≥ 7.00	O=C(NCc1nnn(-c2ccc(-n3ccccc3=O)cc2OC[C@@H](O)CO)c1I)c1ccc(Cl)s1 [Compound 155, 5-Chloro-N-((1-(2-((S)-2,3-dihydroxypropoxy)-4-(2-oxopyridin-1(2H)-yl)phenyl)-5-iodo-1H-1,2,3-triazol-4-yl)methyl)thiophene-2-carboxamide]
≥ 7.00	O=C(NCc1cn(-c2ccc(-n3ccccc3=O)cc2CN2CCS(=O)(=O)CC2)nn1)c1ccc(Cl)s1 [Compound 163, 5-Chloro-N-((1-(4-(2-oxopyridin-1(2H)-yl)-2-(1,1,- dioxothiomorpholinomethyl)phenyl)-1H-1,2,3-triazol-4-yl)methyl)thiophene-2-carboxamide]
≥ 7.00	O=C(NCc1cn(-c2ccc(-n3ccccc3=O)cc2N2CCSCC2)nn1)c1ccc(Cl)s1 [Compound 10, 5-Chloro-N-((1-(4-(2-oxopyridin-1(2H)-yl)-2-thiomorpholinophenyl)-1H-1,2,3-triazol-4-yl)methyl)thiophene-2-carboxamide]
≥ 7.00	O=C(NCc1cn(-c2ccc(-n3ccccc3=O)cc2OCc2nnn[nH]2)nn1)c1ccc(Cl)s1 [Compound 98, N-((1-(2-((1H-Tetrazol-5-yl)methoxy)-4-(2-oxopyridin-1(2H)-yl)phenyl)-1H-1,2,3-triazol-4-yl)methyl)-5-chlorothiophene-2-carboxamide]
≥ 7.00	O=C(NCc1cn(-c2ccc(N3CCCCC3=O)cc2N2CCSCC2)nn1)c1ccc(Cl)s1 [Compound 157, 5-Chloro-N-((1-(4-(2-oxopiperidin-1-yl)-2-thiomorpholinophenyl)-1H-1,2,3-triazol-4-yl)methyl)thiophene-2-carboxamide]
≥ 7.00	O=C1CN(c2cc(-n3ccccc3=O)ccc2-n2cc(CNC(=O)c3ccc(Cl)s3)nn2)CCN1 [Compound 6, 5-Chloro-N-((1-(2-(3-oxopiperazin-1-yl)-4-(2-oxopyridin-1(2H)-yl)phenyl)-1H-1,2,3-triazol-4-yl)methyl)thiophene-2-carboxamide]
≥ 7.00	O=C(NCc1cn(-c2ccc(-n3ccccc3=O)cc2N2CCOCC2)nn1)c1ccc(Cl)s1 [Compound 5, 5-Chloro-N-((1-(2-morpholino-4-(2-oxopyridin-1(2H)-yl)phenyl)-1H-1,2,3-triazol-4-yl)methyl)thiophene-2-carboxamide]
≥ 7.00	O=C(NCc1cn(-c2ccc(-n3ccccc3=O)cc2CN2CCOCC2)nn1)c1ccc(Cl)s1 [Compound 160, 5-Chloro-N-((1-(2-(morpholinomethyl)-4-(2-oxopyridin-1(2H)-yl)phenyl)-1H-1,2,3-triazol-4-yl)methyl)thiophene-2-carboxamide]
≥ 7.00	O=C(NCc1cn(-c2ccc(-n3ccccc3=O)cc2[N+](=O)[O-])nn1)c1ccc(Cl)s1 [Compound 44, 5-ChIoro-N-((1-(2-nitro-4-(2-oxopyridin-1(2H)-yl)phenyl)-1H-1,2,3-triazol-4-yl)methyl)thiophene-2-carboxamide]
≥ 7.00	NC(=O)C1CCN(c2cc(-n3ccccc3=O)ccc2-n2cc(CNC(=O)c3ccc(Cl)s3)nn2)CC1 [Compound 25, 1-(2-(4-((2-Chlorothiophene-5-carboxamido)methyl)-1H-1,2,3-triazol-1-yl)-5-(2-oxopyridin-1(2H)-yl)phenyl)piperidine-4-carboxamide]
≥ 7.00	CNc1ccc(-c2cc(-n3ccccc3=O)ccc2-n2cc(CNC(=O)c3ccc(Cl)s3)nn2)cn1 [Compound 146, 5-Chloro-N-((1-(2-(6-(methylamino)pyridin-3-yl)-4-(2-oxopyridin-1(2H)-yl)phenyl)-1H-1,2,3-triazol-4-yl)methyl)thiophene-2-carboxamide]
≥ 7.00	O=C1CN(Cc2cc(-n3ccccc3=O)ccc2-n2cc(CNC(=O)c3ccc(Cl)s3)nn2)CCN1 [Compound 161, 5-Chloro-N-((1-(2-((3-oxopiperazin-1-yl)methyl)-4-(2-oxopyridin-1(2H)-yl)phenyl)-1H-1,2,3-triazol-4-yl)methyl)thiophene-2-carboxamide]
